# Measurements: the supplement of paper PMC11451515
# Tests used:
# Details in all cases: 48 h
# NOMO1 [1] = assay: AUC of viability dose-response curve (% viability x log10 dose units); higher = less sensitive
# Summary of the method: (§1)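 Leukemia cells adapted to each medium were seeded at 500 or 1000 cells/well in 1536-well plates and dosed with library compounds in DMSO at 11 threefold doses from 47 μM to 0.79 nM for 48 h at 37°C. CellTiter-Glo One luminescence was normalised per plate to DMSO and cell-free wells, then fitted with a four-parameter log-logistic model over log10 doses. Area under the curve was taken from this fit by the trapezoidal rule, with curves above full viability scaled and curves failing quality control removed.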
# P12-Ichikawa [2] = assay: as above
# Summary of the method: as §1
# SEM cells [3] = assay: as above
# Summary of the method: as §1
# NOMO1 [4] = assay: cell viability relative to DMSO control; higher = less cytotoxic
# Summary of the method: (§2)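 Viability values are per-plate percentages of DMSO wells, with background from cell-free wells. Library compounds in DMSO were pin-dosed, in an 11-point threefold series from 47 μM to 0.79 nM, onto NOMO1 or SEM (500 cells/well) or P12-Ichikawa (1000 cells/well) leukemia cells in 1536-well plates (5 μl). Those cells had been adapted for at least four passages in each medium, and CellTiter-Glo One luminescence was read after 48 h at 37°C.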
# P12-Ichikawa [5] = assay: as above
# Summary of the method: as §2
# SEM cells [6] = assay: as above
# Summary of the method: as §2
# [7] = RPMI 5 mM glucose + 10% dialyzed FBS
# [8] = RPMI 5 mM glucose + 10% dialyzed FBS, 0.000781 µM
# [9] = RPMI 5 mM glucose + 10% dialyzed FBS, 0.00234 µM
# [10] = RPMI 5 mM glucose + 10% dialyzed FBS, 0.00702 µM
# [11] = RPMI 5 mM glucose + 10% dialyzed FBS, 0.0211 µM
# [12] = RPMI 5 mM glucose + 10% dialyzed FBS, 0.0632 µM
# [13] = RPMI 5 mM glucose + 10% dialyzed FBS, 0.19 µM
# [14] = RPMI 5 mM glucose + 10% dialyzed FBS, 0.569 µM
# [15] = RPMI 5 mM glucose + 10% dialyzed FBS, 1.71 µM
# [16] = RPMI 5 mM glucose + 10% dialyzed FBS, 5.12 µM
# [17] = RPMI 5 mM glucose + 10% dialyzed FBS, 15.4 µM
# [18] = RPMI 5 mM glucose + 10% dialyzed FBS, 46.1 µM
# [19] = HPLM + 10% dialyzed FBS, 0.000781 µM
# [20] = HPLM + 10% dialyzed FBS, 0.00234 µM
# [21] = HPLM + 10% dialyzed FBS, 0.00702 µM
# [22] = HPLM + 10% dialyzed FBS, 0.0211 µM
# [23] = HPLM + 10% dialyzed FBS, 0.0632 µM
# [24] = HPLM + 10% dialyzed FBS, 0.19 µM
# [25] = HPLM + 10% dialyzed FBS, 0.569 µM
# [26] = HPLM + 10% dialyzed FBS, 1.71 µM
# [27] = HPLM + 10% dialyzed FBS, 5.12 µM
# [28] = HPLM + 10% dialyzed FBS, 15.4 µM
# [29] = HPLM + 10% dialyzed FBS, 46.1 µM
# [30] = RPMI 5 mM glucose + 10% FBS, 0.000781 µM
# [31] = RPMI 5 mM glucose + 10% FBS, 0.00234 µM
# [32] = RPMI 5 mM glucose + 10% FBS, 0.00702 µM
# [33] = RPMI 5 mM glucose + 10% FBS, 0.0211 µM
# [34] = RPMI 5 mM glucose + 10% FBS, 0.0632 µM
# [35] = RPMI 5 mM glucose + 10% FBS, 0.19 µM
# [36] = RPMI 5 mM glucose + 10% FBS, 0.569 µM
# [37] = RPMI 5 mM glucose + 10% FBS, 1.71 µM
# [38] = RPMI 5 mM glucose + 10% FBS, 5.12 µM
# [39] = RPMI 5 mM glucose + 10% FBS, 15.4 µM
# [40] = RPMI 5 mM glucose + 10% FBS, 46.1 µM
smiles,measurement,setting,value
CC(C)[C@H](CO)Nc1nc(Nc2cccc(Cl)c2)c2ncn(C(C)C)c2n1,AUC of viability dose-response curve,NOMO1 [1]; HPLM + 10% dialyzed FBS,304
same,AUC of viability dose-response curve,NOMO1 [1]; RPMI 5 mM glucose + 10% FBS,342
same,AUC of viability dose-response curve,NOMO1 [1]; [7],351
same,AUC of viability dose-response curve,P12-Ichikawa [2]; HPLM + 10% dialyzed FBS,385
same,AUC of viability dose-response curve,P12-Ichikawa [2]; RPMI 5 mM glucose + 10% FBS,404
same,AUC of viability dose-response curve,P12-Ichikawa [2]; [7],387
same,AUC of viability dose-response curve,SEM cells [3]; HPLM + 10% dialyzed FBS,316
same,AUC of viability dose-response curve,SEM cells [3]; RPMI 5 mM glucose + 10% FBS,255
same,AUC of viability dose-response curve,SEM cells [3]; [7],284
same,cell viability,NOMO1 [4]; [8],111%
same,cell viability,NOMO1 [4]; [9],124%
same,cell viability,NOMO1 [4]; [10],127%
same,cell viability,NOMO1 [4]; [11],125%
same,cell viability,NOMO1 [4]; [12],124%
same,cell viability,NOMO1 [4]; [13],112%
same,cell viability,NOMO1 [4]; [14],123%
same,cell viability,NOMO1 [4]; [15],84.2%
same,cell viability,NOMO1 [4]; [16],12.6%
same,cell viability,NOMO1 [4]; [17],6.44%
same,cell viability,NOMO1 [4]; [18],3.06%
same,cell viability,P12-Ichikawa [5]; [19],98.7%
same,cell viability,P12-Ichikawa [5]; [20],112%
same,cell viability,P12-Ichikawa [5]; [21],113%
same,cell viability,P12-Ichikawa [5]; [22],115%
same,cell viability,P12-Ichikawa [5]; [23],113%
same,cell viability,P12-Ichikawa [5]; [24],112%
same,cell viability,P12-Ichikawa [5]; [25],107%
same,cell viability,P12-Ichikawa [5]; [26],104%
same,cell viability,P12-Ichikawa [5]; [27],45.9%
same,cell viability,P12-Ichikawa [5]; [28],26.6%
same,cell viability,P12-Ichikawa [5]; [29],8.74%
same,cell viability,P12-Ichikawa [5]; [30],110%
same,cell viability,P12-Ichikawa [5]; [31],109%
same,cell viability,P12-Ichikawa [5]; [32],120%
same,cell viability,P12-Ichikawa [5]; [33],124%
same,cell viability,P12-Ichikawa [5]; [34],125%
same,cell viability,P12-Ichikawa [5]; [35],115%
same,cell viability,P12-Ichikawa [5]; [36],118%
same,cell viability,P12-Ichikawa [5]; [37],118%
same,cell viability,P12-Ichikawa [5]; [38],76%
same,cell viability,P12-Ichikawa [5]; [39],42%
same,cell viability,P12-Ichikawa [5]; [40],10.2%
same,cell viability,P12-Ichikawa [5]; [8],97.7%
same,cell viability,P12-Ichikawa [5]; [9],110%
same,cell viability,P12-Ichikawa [5]; [10],112%
same,cell viability,P12-Ichikawa [5]; [11],117%
same,cell viability,P12-Ichikawa [5]; [12],115%
same,cell viability,P12-Ichikawa [5]; [13],106%
same,cell viability,P12-Ichikawa [5]; [14],93.4%
same,cell viability,P12-Ichikawa [5]; [15],102%
same,cell viability,P12-Ichikawa [5]; [16],58.5%
same,cell viability,P12-Ichikawa [5]; [17],18.2%
same,cell viability,P12-Ichikawa [5]; [18],4.68%
same,cell viability,SEM cells [6]; [19],88.8%
same,cell viability,SEM cells [6]; [20],88.2%
same,cell viability,SEM cells [6]; [21],97.6%
same,cell viability,SEM cells [6]; [22],101%
same,cell viability,SEM cells [6]; [23],110%
same,cell viability,SEM cells [6]; [24],99.4%
same,cell viability,SEM cells [6]; [25],69.8%
same,cell viability,SEM cells [6]; [26],49.4%
same,cell viability,SEM cells [6]; [27],3.37%
same,cell viability,SEM cells [6]; [28],1.22%
same,cell viability,SEM cells [6]; [29],2.26%
same,cell viability,SEM cells [6]; [30],86.7%
same,cell viability,SEM cells [6]; [31],112%
same,cell viability,SEM cells [6]; [32],101%
same,cell viability,SEM cells [6]; [33],95.4%
same,cell viability,SEM cells [6]; [34],71%
same,cell viability,SEM cells [6]; [35],86.4%
same,cell viability,SEM cells [6]; [36],21.6%
same,cell viability,SEM cells [6]; [37],4.3%
same,cell viability,SEM cells [6]; [38],1.34%
same,cell viability,SEM cells [6]; [39],0.473%
same,cell viability,SEM cells [6]; [40],1.1%
same,cell viability,SEM cells [6]; [8],98.6%
same,cell viability,SEM cells [6]; [9],107%
same,cell viability,SEM cells [6]; [10],91.5%
same,cell viability,SEM cells [6]; [11],104%
same,cell viability,SEM cells [6]; [12],106%
same,cell viability,SEM cells [6]; [13],93.5%
same,cell viability,SEM cells [6]; [14],35.7%
same,cell viability,SEM cells [6]; [15],18.9%
same,cell viability,SEM cells [6]; [16],1.89%
same,cell viability,SEM cells [6]; [17],0.704%
same,cell viability,SEM cells [6]; [18],1.74%
CN(C)CC/C=C1/c2ccccc2COc2ccc(CC(=O)O)cc21,AUC of viability dose-response curve,NOMO1 [1]; HPLM + 10% dialyzed FBS,466
same,AUC of viability dose-response curve,NOMO1 [1]; RPMI 5 mM glucose + 10% FBS,437
same,AUC of viability dose-response curve,NOMO1 [1]; [7],453
same,AUC of viability dose-response curve,P12-Ichikawa [2]; HPLM + 10% dialyzed FBS,462
same,AUC of viability dose-response curve,P12-Ichikawa [2]; RPMI 5 mM glucose + 10% FBS,467
same,AUC of viability dose-response curve,P12-Ichikawa [2]; [7],461
same,AUC of viability dose-response curve,SEM cells [3]; HPLM + 10% dialyzed FBS,448
same,AUC of viability dose-response curve,SEM cells [3]; RPMI 5 mM glucose + 10% FBS,454
same,AUC of viability dose-response curve,SEM cells [3]; [7],449
same,cell viability,NOMO1 [4]; [30],112%
same,cell viability,NOMO1 [4]; [31],115%
same,cell viability,NOMO1 [4]; [32],120%
same,cell viability,NOMO1 [4]; [33],128%
same,cell viability,NOMO1 [4]; [34],153%
same,cell viability,NOMO1 [4]; [35],131%
same,cell viability,NOMO1 [4]; [36],148%
same,cell viability,NOMO1 [4]; [37],166%
same,cell viability,NOMO1 [4]; [38],153%
same,cell viability,NOMO1 [4]; [39],149%
same,cell viability,NOMO1 [4]; [40],147%
same,cell viability,P12-Ichikawa [5]; [19],118%
same,cell viability,P12-Ichikawa [5]; [20],112%
same,cell viability,P12-Ichikawa [5]; [21],116%
same,cell viability,P12-Ichikawa [5]; [22],120%
same,cell viability,P12-Ichikawa [5]; [23],125%
same,cell viability,P12-Ichikawa [5]; [24],125%
same,cell viability,P12-Ichikawa [5]; [25],122%
same,cell viability,P12-Ichikawa [5]; [26],126%
same,cell viability,P12-Ichikawa [5]; [27],129%
same,cell viability,P12-Ichikawa [5]; [28],125%
same,cell viability,P12-Ichikawa [5]; [29],131%
same,cell viability,P12-Ichikawa [5]; [8],122%
same,cell viability,P12-Ichikawa [5]; [9],114%
same,cell viability,P12-Ichikawa [5]; [10],122%
same,cell viability,P12-Ichikawa [5]; [11],141%
same,cell viability,P12-Ichikawa [5]; [12],140%
same,cell viability,P12-Ichikawa [5]; [13],136%
same,cell viability,P12-Ichikawa [5]; [14],146%
same,cell viability,P12-Ichikawa [5]; [15],135%
same,cell viability,P12-Ichikawa [5]; [16],134%
same,cell viability,P12-Ichikawa [5]; [17],136%
same,cell viability,P12-Ichikawa [5]; [18],138%
same,cell viability,SEM cells [6]; [19],85.4%
same,cell viability,SEM cells [6]; [20],81.8%
same,cell viability,SEM cells [6]; [21],108%
same,cell viability,SEM cells [6]; [22],120%
same,cell viability,SEM cells [6]; [23],113%
same,cell viability,SEM cells [6]; [24],130%
same,cell viability,SEM cells [6]; [25],132%
same,cell viability,SEM cells [6]; [26],124%
same,cell viability,SEM cells [6]; [27],101%
same,cell viability,SEM cells [6]; [28],141%
same,cell viability,SEM cells [6]; [29],126%
same,cell viability,SEM cells [6]; [30],123%
same,cell viability,SEM cells [6]; [31],106%
same,cell viability,SEM cells [6]; [32],124%
same,cell viability,SEM cells [6]; [33],127%
same,cell viability,SEM cells [6]; [34],136%
same,cell viability,SEM cells [6]; [35],132%
same,cell viability,SEM cells [6]; [36],143%
same,cell viability,SEM cells [6]; [37],144%
same,cell viability,SEM cells [6]; [38],121%
same,cell viability,SEM cells [6]; [39],148%
same,cell viability,SEM cells [6]; [40],142%
